Data published in the supplement of paper PMC12317010.
Counter-ions that a name gives are not always drawn.

Assay: collision cross section in nitrogen (drift tube, single-field); higher = larger gas-phase ion size
[1] = ion type: [M+H], ion source: APCI, ion mode: Positive
[2] = ion type: [M+H], ion source: ESI, ion mode: Positive
[3] = ion type: [M+Na], ion source: ESI, ion mode: Positive
[4] = ion type: [M+], ion source: APCI, ion mode: Positive
[5] = ion type: [M-H], ion source: ESI, ion mode: Negative
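Further: chemical standards at 10 µM analysed by drift tube IMS-QTOF MS in about 3.95 torr nitrogen, mean of duplicate injections differing ≤1%, mass error below 10 ppm.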

Row | collision cross section in nitrogen [1] | collision cross section in nitrogen [2] | collision cross section in nitrogen [3] | collision cross section in nitrogen [5] | SMILES | also measured
1 | 183.7 Å² | 184.1 Å² | 180.3 Å² |  | CCCCCCCCCCCCN(CCO)CCO [Lauryldiethanolamine] | 
2 | 126.3 Å² | 125.4 Å² |  |  | Cc1ccnc2ccccc12 [Lepidine] | collision cross section in nitrogen [4]: 125.4 Å²
3 | 199.9 Å² | 198.9 Å² |  |  | CN(C)c1ccc(C(c2ccccc2)c2ccc(N(C)C)cc2)cc1 [Leucomalachite green] | 
4 | 144.2 Å² | 144.8 Å² | 155.8 Å² |  | c1ccc([C@H]2CN3CCSC3=N2)cc1 [Levamisole hydrochloride] | 
5 |  |  |  | 141.6 Å² | N[C@@H](Cc1ccc(O)c(O)c1)C(=O)O [Levodopa] | 
6 |  | 213.4 Å² |  |  | N[C@@H](Cc1cc(I)c(Oc2cc(I)c(O)c(I)c2)c(I)c1)C(=O)O [Levothyroxine] | 
7 |  |  |  | 152 Å² | C=CC(C)(CCC=C(C)C)OC(C)=O (stereo unspecified) [Linalyl acetate] | 
8 |  |  |  | 175.2 Å² | CCCCC/C=C\C/C=C\CCCCCCCC(=O)O [Linoleic acid] | 
9 |  |  |  | 147.3 Å² | O=C(O)c1cc(C(=O)O)cc(S(=O)(=O)O)c1 [Lithium 3-carboxy-5-sulfobenzoate] | 
10 |  |  |  | 203 Å² | C[C@H](CCC(=O)O)[C@H]1CC[C@H]2[C@@H]3CC[C@@H]4C[C@H](O)CC[C@]4(C)[C@H]3CC[C@]12C [Lithocholic acid] | 
11 | 187.9 Å² | 187.4 Å² | 195.1 Å² |  | CCOC(=O)N1CCC(=C2c3ccc(Cl)cc3CCc3cccnc32)CC1 [Loratadine] | 
12 | 201.6 Å² | 201.2 Å² | 204.9 Å² | 203.4 Å² | CCCCc1nc(Cl)c(CO)n1Cc1ccc(-c2ccccc2-c2nnn[nH]2)cc1 [Losartan potassium] | 
13 |  |  | 203.9 Å² |  | CC[C@H](C)C(=O)O[C@H]1C[C@@H](C)C=C2C=C[C@H](C)[C@H](CC[C@@H]3C[C@@H](O)CC(=O)O3)[C@H]21 [Lovastatin] | 
14 | 231 Å² | 230.9 Å² | 234.1 Å² | 236.4 Å² | CCCCc1ccc2c(n1)[C@@H](c1ccc(OC)cc1C[C@H](C)C(=O)O)[C@H](C(=O)O)[C@H]2c1ccc2c(c1)OCO2 [MK-547] | 
15 | 243.1 Å² | 243.4 Å² | 241.9 Å² | 247.7 Å² | CCn1nc(Cc2ccccc2)cc1C1CCN(C[C@H]2C[C@H](N(C)[C@@H](C(=O)O)C(C)C)C[C@@H]2c2cccc(F)c2)CC1 [MK-578] | 
16 |  | 214.6 Å² | 219.6 Å² | 207.8 Å² | CO[C@@H]1COCC[C@@H]1N[C@@H]1CC[C@@](C(=O)N2CCc3ncc(C(F)(F)F)cc3C2)(C(C)C)C1 [MK-812] | 
17 | 187.8 Å² | 187.7 Å² | 191.4 Å² | 198.9 Å² | Fc1ccccc1[C@@H](F)CO[C@H]1CC[C@H](Nc2[nH]cnc3nncc2-3)CC1 [MK-968] | 
18 |  |  |  |  | CN(C)c1ccc(C(=C2C=CC(=[N+](C)C)C=C2)c2ccccc2)cc1 [Malachite green] | collision cross section in nitrogen (ion source: APCI, ion mode: Positive, ion type: [M]+ (permanent cation)): 188.5 Å²; collision cross section in nitrogen (ion source: ESI, ion mode: Positive, ion type: [M]+ (permanent cation)): 188.9 Å²
19 |  |  |  | 116.9 Å² | O=C(O)CC(O)C(=O)O (stereo unspecified) [Malic acid] | 
20 | 119.5 Å² |  |  |  | Cc1occc(=O)c1O [Maltol] | 

Row | collision cross section in nitrogen [1] | collision cross section in nitrogen [2] | collision cross section in nitrogen [3] | collision cross section in nitrogen [5] | SMILES | also measured
21 | 164.1 Å² | 164.3 Å² |  |  | CNCCCC12CCC(c3ccccc31)c1ccccc12 [Maprotiline hydrochloride] | 
22 |  |  | 212.7 Å² |  | CC(=O)O[C@]1(C(C)=O)CC[C@H]2[C@@H]3C[C@H](C)C4=CC(=O)CC[C@]4(C)[C@H]3CC[C@@]21C [Medroxyprogesterone acetate] | 
23 |  |  |  | 160.9 Å² | Cc1cccc(Nc2ccccc2C(=O)O)c1C [Mefenamic acid] | collision cross section in nitrogen [4]: 152.3 Å²
24 |  |  | 194.8 Å² |  | CCOC(=O)C1=NN(c2ccc(Cl)cc2Cl)C(C)(C(=O)OCC)C1 (stereo unspecified) [Mefenpyr-diethyl] | 
25 | 153.7 Å² | 153.3 Å² | 156.9 Å² | 156 Å² | COc1ccc2[nH]cc(CCNC(C)=O)c2c1 [Melatonin] | 
26 | 201.5 Å² | 200.3 Å² |  |  | C=C1C[C@H]2[C@@H]3C=C(C)C4=CC(=O)CC[C@]4(C)[C@H]3CC[C@]2(C)[C@@]1(OC(C)=O)C(C)=O [Melengestrol acetate] | 
27 | 179.2 Å² | 178.5 Å² | 184.2 Å² | 177.7 Å² | Cc1cnc(NC(=O)C2=C(O)c3ccccc3S(=O)(=O)N2C)s1 [Meloxicam] | 
28 |  | 212.4 Å² | 220.1 Å² |  | N#Cc1ccc(CC(=NNC(=O)Nc2ccc(OC(F)(F)F)cc2)c2cccc(C(F)(F)F)c2)cc1 [Metaflumizone] | 
29 |  |  | 152.3 Å² |  | Cc1cc(C)cc(OCC2CNC(=O)O2)c1 (stereo unspecified) [Metaxalone] | 
30 | 125.1 Å² | 125.7 Å² |  |  | CN(C)C(=N)NC(=N)N [Metformin] | 
31 |  | 157.8 Å² | 160.3 Å² |  | CN(C)CCN(Cc1cccs1)c1ccccn1 [Methapyrilene fumarate] | 
32 | 157.6 Å² | 157.6 Å² | 160.1 Å² |  | CN(C)CCN(Cc1cccs1)c1ccccn1 [Methapyrilene hydrochloride] | 
33 | 152.5 Å² | 153.3 Å² |  |  | Cc1oc(C)c(C(=O)Nc2ccccc2)c1C [Methfuroxam] | 
34 | 116.9 Å² | 118.1 Å² |  |  | Cn1cc[nH]c1=S [Methimazole] | 
35 | 143.1 Å² | 143.3 Å² |  | 147.1 Å² | Cc1cccc(NC(=S)N(C)C)c1 [Methiuron] | 
36 |  |  | 154.6 Å² |  | COc1ccccc1OCC(O)COC(N)=O (stereo unspecified) [Methocarbamol] | 
37 |  |  | 176.2 Å² | 178.7 Å² | COC(=O)CCc1cc(C(C)(C)C)c(O)c(C(C)(C)C)c1 [Methyl 3,5-bis(tert-butyl)-4-hydroxyhydrocinnamate] | 
38 |  |  | 148.5 Å² | 141.1 Å² | COC(=O)c1sccc1S(N)(=O)=O [Methyl 3-sulfamoylthiophene-2-carboxylate] | 
39 |  |  | 194.2 Å² |  | CCCCCCC(O)CCCCCCCCCCC(=O)OC (stereo unspecified) [Methyl 12-hydroxyoctadecanoate] | 
40 |  |  |  | 158.5 Å² | CCCCCCCCCCCC(=O)OC [Methyl dodecanoate] | 

Row | SMILES | collision cross section in nitrogen [1] | collision cross section in nitrogen [2] | collision cross section in nitrogen [3] | collision cross section in nitrogen [5] | also measured
41 | CON(C)C(=O)Nc1ccc(Cl)c(Cl)c1 [Linuron] |  |  |  | 151.1 Å² | 
42 | O=S(=O)(NS(=O)(=O)C(F)(F)F)C(F)(F)F [Lithium bis[(trifluoromethyl)sulfonyl]azanide] |  |  |  | 129.9 Å² | 
43 | O=S(=O)(O)C(F)(F)C(F)(F)C(F)(F)C(F)(F)C(F)(F)C(F)(F)C(F)(F)C(F)(F)F [Lithium perfluorooctanesulfonate] |  |  |  | 168.3 Å² | 
44 | O=C(NC(=O)c1c(F)cccc1F)Nc1cc(Cl)c(OC(F)(F)C(F)C(F)(F)F)cc1Cl (stereo unspecified) [Lufenuron] |  |  |  | 205.4 Å² | 
45 | O=[N+]([O-])O [Magnesium dinitrate hexahydrate] |  |  |  | 104.1 Å² | 
46 | CCOC(=O)CC(SP(=O)(OC)OC)C(=O)OCC (stereo unspecified) [Malaoxon] |  |  | 165.7 Å² |  | 
47 | CCOC(=O)CC(SP(=S)(OC)OC)C(=O)OCC (stereo unspecified) [Malathion] |  |  | 172.2 Å² |  | 
48 | O=c1ccc(=O)[nH][nH]1 [Maleic hydrazide] |  |  |  | 117.8 Å² | 
49 | CC#Cc1cc(C)nc(Nc2ccccc2)n1 [Mepanipyrim] | 152.6 Å² | 153.1 Å² |  | 160.6 Å² | collision cross section in nitrogen [4]: 147.3 Å²
50 | Cc1ccccc1C(=O)Nc1cccc(OC(C)C)c1 [Mepronil] | 169.9 Å² | 169.4 Å² | 180.1 Å² | 172.6 Å² | 
51 | COCC(=O)N(c1c(C)cccc1C)[C@H](C)C(=O)OC [Metalaxyl-M] | 160.5 Å² | 160 Å² | 168.8 Å² |  | 
52 | COCC(=O)N(c1c(C)cccc1C)C(C)C(=O)OC (stereo unspecified) [Metalaxyl] | 160.5 Å² | 160.8 Å² | 169.4 Å² |  | 
53 | Cc1nnc(-c2ccccc2)c(=O)n1N [Metamitron] | 144.9 Å² | 145.2 Å² |  |  | 
54 | CC1(C)CCC(Cc2ccc(Cl)cc2)C1(O)Cn1cncn1 (stereo unspecified) [Metconazole] | 169.3 Å² | 169.1 Å² | 176.1 Å² |  | 
55 | CC1CN1P(=O)(N1CC1C)N1CC1C (stereo unspecified) [Metepa] | 142.5 Å² | 143.2 Å² | 159.9 Å² |  | 
56 | CNC(=O)N(C)c1nc2ccccc2s1 [Methabenzthiazuron] | 144.2 Å² | 144.7 Å² |  |  | 
57 | COc1nn(CSP(=S)(OC)OC)c(=O)s1 [Methidathion] |  |  | 163.4 Å² |  | 
58 | COc1cccc(C(=O)NN(C(=O)c2cc(C)cc(C)c2)C(C)(C)C)c1C [Methoxyfenozide] |  |  | 201.9 Å² | 194.2 Å² | 
59 | COC(=O)C1(O)c2ccccc2-c2ccccc21 [Methyl 9-hydroxy-9H-fluorene-9-carboxylate] |  |  |  | 150.1 Å² | 
60 | COS(=O)(=O)c1ccccc1 [Methyl benzenesulphonate] |  |  |  | 135 Å² | 
